Measured values reported in publication PMC10733463, “Berberine-microbiota interplay: orchestrating gut health through modulation of the gut microbiota and metabolic transformation into bioactive metabolites” (Frontiers in Pharmacology, 2023).

Assays:
Assay type in all cases: in vivo, Ross 308 broiler chickens
colonic microbiota = assay: 16S rRNA gene sequencing, microbiota composition in the colon
caecal microbiota [1] = assay: SCFA quantification (GC-FID) in caecal contents of chickens; settings: high dose (1 g berberine/kg feed), 21 days; p = 0.045
Experimental: 250 mg caecal content derived from the in vivo trial were weighed and diluted 1:20 for SCFA analysis. Acetate, propionate and butyrate were quantified using the GC-FID method described by ([De […] et al., 2010]). This method involves the extraction of SCFA from samples with diethyl ether after the addition of 2-methyl hexanoic acid as an internal standard.

caecal microbiota [2] = assay: 16S rRNA gene sequencing, microbiota composition in the caecum
[3] = 0.1 g berberine/kg feed vs normal diet, 21 days, LinDA-normalized abundance
[4] = 0.1 g berberine/kg feed, 21 days
[5] = 0.5 g berberine/kg feed vs normal diet, 21 days, LinDA-normalized abundance
[6] = 0.5 g berberine/kg feed, 21 days
[7] = 1 g berberine/kg feed vs normal diet, 21 days, LinDA-normalized abundance

COc1ccc2cc3[n+](cc2c1OC)CCc1cc2c(cc1-3)OCO2 [Berberine, Berberine chloride]
L2 FC Family_ Peptostreptococcaceae, 0.1 vs 0 (colonic microbiota; [3]): -1.21
L2 FC GCA-900066575, 0.1 vs 0 (colonic microbiota; [3]): 3.13
L2 FC Lachnospiraceae UCG-010, 0.1 vs 0 (colonic microbiota; [3]): 2.34
L2 FC Romboutsia, 0.1 vs 0 (colonic microbiota; [3]): -0.31
L2 FC Ruminococcaceae UCG-014, 0.1 vs 0 (colonic microbiota; [3]): 5.39
L2 FC uncultured genus of Peptostreptococcaceae, 0.1 vs 0 (colonic microbiota; [3]): -1.31
Mean relative abundance (%) Family_ Peptostreptococcaceae (colonic microbiota; [4]): 0.11%
Mean relative abundance (%) GCA-900066575 (colonic microbiota; [4]): 0.59%
Mean relative abundance (%) Lachnospiraceae UCG-010 (colonic microbiota; [4]): 0.06%
Mean relative abundance (%) Romboutsia (colonic microbiota; [4]): 0.14%
Mean relative abundance (%) Ruminococcaceae UCG-014 (colonic microbiota; [4]): 3.36%
Mean relative abundance (%) uncultured genus of Peptostreptococcaceae (colonic microbiota; [4]): 13.82%
Mean relative abundance of Peptostreptococcaceae (colonic microbiota; [4]): 14.07%
L2FC of LinDA-normalized abundance of Peptostreptococcaceae (colonic microbiota; 0.1 vs 0 g berberine/kg feed): -0.79
L2 FC Family_ Peptostreptococcaceae, 0.5 vs 0 (colonic microbiota; [5]): -2.31
L2 FC GCA-900066575, 0.5 vs 0 (colonic microbiota; [5]): 1.10
L2 FC Lachnospiraceae UCG-010, 0.5 vs 0 (colonic microbiota; [5]): 0.64
L2 FC Romboutsia, 0.5 vs 0 (colonic microbiota; [5]): -1.42
L2 FC Ruminococcaceae UCG-014, 0.5 vs 0 (colonic microbiota; [5]): 2.59
L2 FC uncultured genus of Peptostreptococcaceae, 0.5 vs 0 (colonic microbiota; [5]): -1.92
Mean relative abundance (%) Family_ Peptostreptococcaceae (colonic microbiota; [6]): 0.13%
Mean relative abundance (%) GCA-900066575 (colonic microbiota; [6]): 0.53%
Mean relative abundance (%) Lachnospiraceae UCG-010 (colonic microbiota; [6]): 0.03%
Mean relative abundance (%) Romboutsia (colonic microbiota; [6]): 0.11%
Mean relative abundance (%) Ruminococcaceae UCG-014 (colonic microbiota; [6]): 1.19%
Mean relative abundance (%) uncultured genus of Peptostreptococcaceae (colonic microbiota; [6]): 15.49%
Mean relative abundance of Peptostreptococcaceae (colonic microbiota; [6]): 15.73%
L2FC of LinDA-normalized abundance of Peptostreptococcaceae (colonic microbiota; 0.5 vs 0 g berberine/kg feed): -0.94
L2 FC Family_ Peptostreptococcaceae, 1 vs 0 (colonic microbiota; [7]): -6.62
L2 FC GCA-900066575, 1 vs 0 (colonic microbiota; [7]): 2.34
L2 FC Lachnospiraceae UCG-010, 1 vs 0 (colonic microbiota; [7]): 0.99
L2 FC Romboutsia, 1 vs 0 (colonic microbiota; [7]): -6.45
L2 FC Ruminococcaceae UCG-014, 1 vs 0 (colonic microbiota; [7]): 3.32
L2 FC uncultured genus of Peptostreptococcaceae, 1 vs 0 (colonic microbiota; [7]): -9.04
Mean relative abundance (%) Family_ Peptostreptococcaceae (colonic microbiota; 1 g berberine/kg feed, 21 days): 0.01%
Mean relative abundance (%) GCA-900066575 (colonic microbiota; 1 g berberine/kg feed, 21 days): 0.65%
Mean relative abundance (%) Lachnospiraceae UCG-010 (colonic microbiota; 1 g berberine/kg feed, 21 days): 0.06%
Mean relative abundance (%) Romboutsia (colonic microbiota; 1 g berberine/kg feed, 21 days): 0.00%
Mean relative abundance (%) Ruminococcaceae UCG-014 (colonic microbiota; 1 g berberine/kg feed, 21 days): 1.02%
Mean relative abundance (%) uncultured genus of Peptostreptococcaceae (colonic microbiota; 1 g berberine/kg feed, 21 days): 0.50%
Mean relative abundance of Peptostreptococcaceae (colonic microbiota; 1 g berberine/kg feed, 21 days): 0.51%
L2FC of LinDA-normalized abundance of Peptostreptococcaceae (colonic microbiota; 1 vs 0 g berberine/kg feed): -8.67
Observed number of OTUs (colonic microbiota; lowest concentration (0.1 g/kg feed), p = 0.026): significantly increased
Propionate in the caecum (GC-FID) (caecal microbiota [1]): significantly increased
L2 FC ASF356, 0.1 vs 0 (caecal microbiota [2]; [3]): 3.88
L2 FC CHKCI001, 0.1 vs 0 (caecal microbiota [2]; [3]): 1.33
L2 FC Family_ Lachnospiraceae, 0.1 vs 0 (caecal microbiota [2]; [3]): -0.10
L2 FC Fusicatenibacter, 0.1 vs 0 (caecal microbiota [2]; [3]): 1.41
L2 FC uncultured genus of Peptostreptococcaceae, 0.1 vs 0 (caecal microbiota [2]; [3]): 0.26
Mean relative abundance (%) ASF356 (caecal microbiota [2]; [4]): 0.40%
Mean relative abundance (%) CHKCI001 (caecal microbiota [2]; [4]): 0.02%
Mean relative abundance (%) Family_ Lachnospiraceae (caecal microbiota [2]; [4]): 2.08%
Mean relative abundance (%) Fusicatenibacter (caecal microbiota [2]; [4]): 0.06%
Mean relative abundance (%) uncultured genus of Peptostreptococcaceae (caecal microbiota [2]; [4]): 0.63%
Mean relative abundance of Peptostreptococcaceae (caecal microbiota [2]; [4]): 0.66%
L2FC of LinDA-normalized abundance of Peptostreptococcaceae (caecal microbiota [2]; 0.1 vs 0 g berberine/kg feed): 0.02
L2 FC ASF356, 0.5 vs 0 (caecal microbiota [2]; [5]): 4.47
L2 FC CHKCI001, 0.5 vs 0 (caecal microbiota [2]; [5]): 2.34
L2 FC Family_ Lachnospiraceae, 0.5 vs 0 (caecal microbiota [2]; [5]): 1.25
L2 FC Fusicatenibacter, 0.5 vs 0 (caecal microbiota [2]; [5]): 3.47
L2 FC uncultured genus of Peptostreptococcaceae, 0.5 vs 0 (caecal microbiota [2]; [5]): -0.52
Mean relative abundance (%) ASF356 (caecal microbiota [2]; [6]): 0.38%
Mean relative abundance (%) CHKCI001 (caecal microbiota [2]; [6]): 0.03%
Mean relative abundance (%) Family_ Lachnospiraceae (caecal microbiota [2]; [6]): 5.61%
Mean relative abundance (%) Fusicatenibacter (caecal microbiota [2]; [6]): 0.32%
Mean relative abundance (%) uncultured genus of Peptostreptococcaceae (caecal microbiota [2]; [6]): 0.54%
Mean relative abundance of Peptostreptococcaceae (caecal microbiota [2]; [6]): 0.56%
L2FC of LinDA-normalized abundance of Peptostreptococcaceae (caecal microbiota [2]; 0.5 vs 0 g berberine/kg feed): -0.55
L2 FC ASF356, 1 vs 0 (caecal microbiota [2]; [7]): 3.78
L2 FC CHKCI001, 1 vs 0 (caecal microbiota [2]; [7]): 1.13
L2 FC Family_ Lachnospiraceae, 1 vs 0 (caecal microbiota [2]; [7]): 0.72
L2 FC Fusicatenibacter, 1 vs 0 (caecal microbiota [2]; [7]): 2.41
L2 FC uncultured genus of Peptostreptococcaceae, 1 vs 0 (caecal microbiota [2]; [7]): -8.12
Mean relative abundance (%) ASF356 (caecal microbiota [2]; 1 g berberine/kg feed, 21 days): 0.32%
Mean relative abundance (%) CHKCI001 (caecal microbiota [2]; 1 g berberine/kg feed, 21 days): 0.02%
Mean relative abundance (%) Family_ Lachnospiraceae (caecal microbiota [2]; 1 g berberine/kg feed, 21 days): 5.61%
Mean relative abundance (%) Fusicatenibacter (caecal microbiota [2]; 1 g berberine/kg feed, 21 days): 0.12%
Mean relative abundance (%) uncultured genus of Peptostreptococcaceae (caecal microbiota [2]; 1 g berberine/kg feed, 21 days): 0.00%
Mean relative abundance of Peptostreptococcaceae (caecal microbiota [2]; 1 g berberine/kg feed, 21 days): 0.00%
L2FC of LinDA-normalized abundance of Peptostreptococcaceae (caecal microbiota [2]; 1 vs 0 g berberine/kg feed): -7.85
Observed number of OTUs (caecal microbiota [2]; lowest concentration (0.1 g/kg feed), p = 0.041): significantly increased
Bacterial richness (Observed number of OTUs) (caecal microbiota [2]; middle concentration (0.5 g/kg feed), p = 0.087): tended to increase
